Biological target: T1, STING (Homo sapiens, UniProt Q86WV6, G230A/H232R/R293Q/R71H)
T1 construct: host or cells: THP1-Dual cells (human THP-1 monocyte line with Lucia/SEAP reporters)
Assay: Reporter gene expression assay in THP1-Dual cells (IRF pathway Lucia luciferase, 2',3'-cGAMP stimulation)
Assay type: cell-based
Conditions: 10 min preincubation, 5 μM 2',3'-cGAMP, 20 hr, IRF reporter QUANTI-Luc, read-out: THP-1 (HAQ) Activity
Outline: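 THP1-Dual cells preincubated 10 min with compound, then stimulated with 5 μM 2′,3′-cGAMP for 20 hr. Secreted Lucia luciferase (IRF reporter) measured in supernatant by luminescence; IC50 reported as ranges (A ≤1 μM, B >1–≤10 μM, C >10 μM).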

T1 sequence (Q86WV6 whole entry R71H/G230A/H232R/R293Q): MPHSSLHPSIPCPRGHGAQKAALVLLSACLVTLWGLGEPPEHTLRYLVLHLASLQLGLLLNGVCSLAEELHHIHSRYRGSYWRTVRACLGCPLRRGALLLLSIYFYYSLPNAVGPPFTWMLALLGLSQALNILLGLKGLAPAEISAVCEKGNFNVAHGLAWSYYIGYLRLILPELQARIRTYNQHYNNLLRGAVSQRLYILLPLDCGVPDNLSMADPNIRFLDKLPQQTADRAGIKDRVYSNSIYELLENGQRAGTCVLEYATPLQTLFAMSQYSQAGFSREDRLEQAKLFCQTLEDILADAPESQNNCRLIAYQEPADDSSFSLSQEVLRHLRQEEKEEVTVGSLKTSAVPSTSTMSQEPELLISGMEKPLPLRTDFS

Question: For O=C(Nc1ccc2c(c1)N(Cc1ccccc1)C(=O)CS2)Nc1ccc2cn[nH]c2c1 [Example 28, 1-(4-benzyl-3-oxo-3,4-dihydro-2H-benzo[b][1, 4]thiazin-6-yl)-3-(1H-indazol-6-yl)urea], which IC50 is on record?
Answer: 1 to 10 µM

Question: Which IC50 does the source give for NC(=O)c1cccc(CN2C(=O)COc3cc(NC(=O)Nc4ccc5cc[nH]c5c4)ccc32)c1 [Example 155, 3-((7-(3-(1H-indol-6-yl)ureido)-3-oxo-2,3-dihydro-4H-benzo[b][1, 4]oxazin-4-yl)methyl) benzamide] here?
Answer: > 10 µM

Question: For NC(=O)c1ccc(NC(=O)Nc2ccc3c(c2)N(Cc2ccccc2)C(=O)CS3)cc1 [Example 33, 4-(3-(4-benzyl-3-oxo-3,4-dihydro-2H-benzo[b][1, 4]thiazin-6-yl)ureido) benzamide], which IC50 is on record?
Answer: 1 to 10 µM

Question: With O=C(Nc1ccc2c(c1)OCC(=O)N2Cc1cccc(O)c1)Nc1ccc2cc[nH]c2c1 [Example 152, 1-(4-(3-hydroxybenzyl)-3-oxo-3,4-dihydro-2H-benzo[b][1, 4]oxazin-7-yl)-3-(1H-indol-6-yl)urea] as the compound, how does the IC50 read?
Answer: 1 to 10 µM

Question: CC1Sc2ccc(NC(=O)Nc3ccccc3)cc2N(Cc2ccccc2)C1=O (stereo not shown) [Example 32, 1-(4-benzyl-2-methyl-3-oxo-3,4-dihydro-2H-benzo[b][1, 4]thiazin-6-yl)-3-phenylurea] was tested. Which IC50 did it give?
Answer: 1 to 10 µM

Question: Which IC50 does the source give for O=C(Nc1ccc2c(c1)OCC(=O)N2Cc1ccc[nH]c1=O)Nc1ccc2cc[nH]c2c1 [Example 158, 1-(1H-indol-6-yl)-3-(3-oxo-4-((2-oxo-1,2-dihydropyridin-3-yl)methyl)-3,4-dihydro-2H-benzo[b][1, 4]oxazin-7-yl)urea] here?
Answer: > 10 µM

Question: With CN1C(=O)CSc2ccc(NC(=O)Nc3ccc4cc[nH]c4c3)cc21 [Example 87, 1-(1H-indol-6-yl)-3-(4-methyl-3-oxo-3,4-dihydro-2H-benzo[b][1, 4]thiazin-6-yl)urea] as the compound, how does the IC50 read?
Answer: 1 to 10 µM

Question: With N#Cc1ccc(CNC(=O)Nc2ccc3c(c2)N(Cc2ccccc2)C(=O)CS3)cc1 [Example 12, 1-(4-benzyl-3-oxo-3,4-dihydro-2H-benzo[b][1, 4]thiazin-6-yl)-3-(4-cyanobenzyl) urea] as the compound, how does the IC50 read?
Answer: > 10 µM

Question: Which IC50 does the source give for O=C(Nc1ccc2cc[nH]c2c1)Nc1cc2c(cc1Br)OCCN2Cc1ccccc1 [Example 180, 1-(4-benzyl-7-bromo-3,4-dihydro-2H-benzo[b][1, 4]oxazin-6-yl)-3-(1H-indol-6-yl)urea] here?
Answer: 1 to 10 µM

Question: For O=C(Nc1ccc2c(c1)OCC(=O)N2Cc1ccn[nH]1)Nc1ccc2cc[nH]c2c1 [Example 161, 1-(4-((1H-pyrazol-5-yl)methyl)-3-oxo-3,4-dihydro-2H-benzo[b][1, 4]oxazin-7-yl)-3-(1H-indol-6-yl)urea], which IC50 is on record?
Answer: > 10 µM

Question: Which IC50 does the source give for O=C(Nc1ccc2c(c1)N(Cc1ccccc1)C(=O)CS2)Nc1ccc2cc[nH]c2c1 [Example 1, 1-(4-Benzyl-3-oxo-3,4-dihydro-2H-benzo[b][1,4]thiazin-6-yl)-3-(1H-indol-6-yl)urea] here?
Answer: 1 to 10 µM

Question: With CN1CCN(Cc2ccccc2)c2cc(NC(=O)Nc3ccc4cc[nH]c4c3)ccc21 [Example 73, 1-(4-Benzyl-1-methyl-1,2,3,4-tetrahydroquinoxalin-6-yl)-3-(1H-indol-6-yl)urea] as the compound, how does the IC50 read?
Answer: 1 to 10 µM

Question: O=C(Nc1ccc2c(c1)SCC(=O)N2Cc1c(F)ccc(O)c1Cl)Nc1ccc2cc[nH]c2c1 [Example 125, l-(4-(2-chloro-6-fluoro-3-hydroxybenzyl)-3-oxo-3,4-dihydro-2H-benzo[b][1, 4]thiazin-7-yl)-3-(1H-indol-6-yl)urea] was tested. Which IC50 did it give?
Answer: ≤ 1 µM

Question: O=C(Nc1ccc2c(c1)N(Cc1ccccc1)CCS2)Nc1ccc2cc[nH]c2c1 [Example 50, 1-(4-Benzyl-3,4-dihydro-2H-benzo[b][1,4]thiazin-6-yl)-3-(1H-indol-6-yl)urea] was tested. Which IC50 did it give?
Answer: ≤ 1 µM

Question: For NC(=O)C(c1ccccc1)N1CCOc2ccc(NC(=O)Nc3ccc4cc[nH]c4c3)cc21 (stereo not shown) [Example 84, 2-(6-(3-(1H-Indol-6-yl)ureido)-2,3-dihydro-4H-benzo[b][1,4]oxazin-4-yl)-2-phenylacetamide], which IC50 is on record?
Answer: 1 to 10 µM

Question: N#CC1COc2cc(NC(=O)Nc3ccc4cc[nH]c4c3)ccc2N1Cc1ccccc1 (stereo not shown) [Example 186, 1-(4-benzyl-3-cyano-3,4-dihydro-2H-benzo[b][1,4]oxazin-7-yl)-3-(1H-indol-6-yl)urea] was tested. Which IC50 did it give?
Answer: 1 to 10 µM

Reference: US20230124361A1, “SMALL MOLECULE STING ANTAGONISTS” (CURADEV PHARMA PVT. LTD., priority 2020, published 2023)
